According to US12544343B2, “Treatment of inflammatory condition in mucous membrane or skin” (MUCOCORT AB, priority 2019, dated 2026):
“Also recorded” adds a separate entry of the source.

Columns and labels:
TNF-α production = TNF-α production by LPS-stimulated human PBMC (ELISA); type: cell-based
Experimental: (§1) Human venous blood was sampled and collected in heparinized vials and mix well by gently inverting the tubes several times. Human peripheral blood mononuclear cells (PBMCs) were isolated by gradient centrifugation using Ficoll-Histopaque®. Cells were washed (centrifuged at 400×g for 10 min) with sterile phosphate-buffered saline (PBS). PBS was discarded, and the cell pellet re-suspended in sterile Dulbecco's Modified Eagle's Medium (DMEM). Cells were then counted by haemocytometer using white blood cell (W.B.C.) diluting fluid: 15 μl of cell suspension was added to 15 μl trypan blue and mixed well. The cell suspension was loaded in a haemocytometer and the cells were counted. The cell concentration was adjusted at 2×10^6 cells/ml with DMEM supplemented with 1% of penicillin-streptomycin solution and 5% human serum. The approximate yield of cells varied between 107-10^8 cells/ml. 1 ml of cell suspension was seeded in a 24 well culture plate. 1 ml propane-1,2-diol diluted in DMEM was added at various concentrations (from 0 to 100 mM). Phytohemagglutinin (PHA), 15 μl, was added to a final concentration of 1 μg/ml. When the effect of different concentrations of PHA were studied (FIG. 1), the range used varied from 0 to 25 μg/ml. The plate was incubated for 24 h at +37° C. and in 5% CO2. The plate was then frozen at −20° C. until further analysis. After thawing the samples, an enzyme-linked immunosorbent assay (ELISA) was performed according to the manufacturer's specifications. In vitro culture of human PBMCs was performed as described above in Example 1. In brief, 1 ml propane-1,2-diol was added to 1 ml PBMC to obtain a range of 30 final concentrations (0 to 100 mM). 15 μl LPS was added to a final concentration of 100 nM and the cell suspension was incubated at 37° C. in 5% CO2 for 24 h. The plate was then frozen in −20° C. until the ELISA analysis. TNF-α production was determined by ELISA using procedures (BioSite, Sweden; Art. No: EA102165) according to the manufacturer's specifications.

IL-2 production = IL-2 production by PHA-stimulated human PBMC (ELISA); type: cell-based; conditions: 100 mM propane-1,2-diol, 1 μg/ml PHA-stimulated PBMC, FIG. 4
Experimental: as §1, with “[…] IL-2” for “The plate was incubated for 24 h at +37° C. and in 5% CO2. The plate was then frozen at −20° C. until further analysis. After thawing the samples, an enzyme-linked immunosorbent assay (ELISA) was performed according to the manufacturer's specifications. In vitro culture of human PBMCs was performed as described above in Example 1. In brief, 1 ml propane-1,2-diol was added to 1 ml PBMC to obtain a range of 30 final concentrations (0 to 100 mM). 15 μl LPS was added to a final concentration of 100 nM and the cell suspension was incubated at 37° C. in 5% CO2 for 24 h. The plate was then frozen in −20° C. until the ELISA analysis. TNF-α”

pig oral mucosa = assay: Dehydration effect towards oral mucosa (immersion of tissue in solution)
Experimental: Fresh pig oral mucosa (300-700 mg) was equilibrated at room temperature at 40% relative humidity (RH), weighed and immersed in 5 ml of the investigated solution for 20 h at room temperature (RT, ˜20-25° C.). The tissue was removed from the solution, dried by blotting and weighed. Finally, it was dried at +40° C. for 24 h.

PBMC = type: cell-based, human
Experimental: This Example investigated whether the inhibition of TNF-α in Example 2 and/or IL-2 in Example 3 was due to cell death of the PBMCs.
PBMCs were isolated from one donor as described in Example 1. 1 ml of 2×10^6 PBMC cells were added to 12 wells in a 24-well plate. 1 ml of 2000 mM propane-1,2-diol was added to two of the wells to get a final concentration of 1000 mM (8% propane-1,2-diol). The same procedure was used to obtain decreasing concentrations of propane-1,2-diol (500 mM (4% propane-1,2-diol), 250 mM (2% propane-1,2-diol), 125 mM (1% propane-1,2-diol), 62.5 mM (0.5% propane-1,2-diol)). After 24 hrs incubation at 37° C. and 5% CO2, 15 μl of each cell culture was mixed with 15 μl of tryptan blue and dead cells out of 100 cells were counted under a light microscope.

Compound: CC(O)CO (stereo not shown) [propane-1,2-diol]
- inhibition of TNF-α, concentration dependence (TNF-α production; 0 to 100 mM, LPS-stimulated PBMC from 4 individuals, FIGS. 1A-1D): concentration-dependent inhibition
- inhibition of TNF-α at 100 mM (TNF-α production; 100 mM propane-1,2-diol, LPS-stimulated PBMC from 4 individuals, 24 h, FIGS. 1A-1D): maximal inhibition; also recorded: strong inhibition
- inhibition of TNF-α in PBMC from 12 individuals (TNF-α production; 100 mM, LPS-stimulated PBMCs from 12 different individuals, FIG. 2): inhibition was observed in all 12 individuals
- IL-2 production reduced, patient A (IL-2 production; patient A): 53%
- IL-2 production reduced, patient B (IL-2 production; patient B): 64%
- dehydration effect at 1% and 5% (pig oral mucosa; propane-1,2-diol solutions at concentration of 1% and 5%): No dehydration effect
- dehydration effect at 50%, 80% and 100% (pig oral mucosa; propane-1,2-diol solutions at concentrations 50%, 80% and 100%): dehydration effect was evident
- cell death of peripheral blood mononuclear cells at 5% (w/v) (PBMC): induced a significant cell death
- toxic effect / cell death of PBMCs, up to 1% (PBMC): did not have any significant toxic effect
- toxic effects / cell death at an amount according to the invention (PBMC): does not have any significant toxic effects
